Results from patent US8946197B2, “Transglutaminase TG2 inhibitors, pharmaceutical compositions, and methods of use thereof” (CHDI Foundation, Inc., priority 2009, dated 2015).
Several values for one entry are separate records, joined by “and”; a condition that tells them apart may be missing. Identical values can stand only once.

target: T1, human TG2 (Homo sapiens, UniProt P21980); test: fluorescent screening assay for human TG2; assay type: biochemical; conditions: 20 nM TG2, 8 μM N,N-dimethylated Casein, 16 μM KxD, pH 7.4, 37° C
T1 sequence (P21980 1-687): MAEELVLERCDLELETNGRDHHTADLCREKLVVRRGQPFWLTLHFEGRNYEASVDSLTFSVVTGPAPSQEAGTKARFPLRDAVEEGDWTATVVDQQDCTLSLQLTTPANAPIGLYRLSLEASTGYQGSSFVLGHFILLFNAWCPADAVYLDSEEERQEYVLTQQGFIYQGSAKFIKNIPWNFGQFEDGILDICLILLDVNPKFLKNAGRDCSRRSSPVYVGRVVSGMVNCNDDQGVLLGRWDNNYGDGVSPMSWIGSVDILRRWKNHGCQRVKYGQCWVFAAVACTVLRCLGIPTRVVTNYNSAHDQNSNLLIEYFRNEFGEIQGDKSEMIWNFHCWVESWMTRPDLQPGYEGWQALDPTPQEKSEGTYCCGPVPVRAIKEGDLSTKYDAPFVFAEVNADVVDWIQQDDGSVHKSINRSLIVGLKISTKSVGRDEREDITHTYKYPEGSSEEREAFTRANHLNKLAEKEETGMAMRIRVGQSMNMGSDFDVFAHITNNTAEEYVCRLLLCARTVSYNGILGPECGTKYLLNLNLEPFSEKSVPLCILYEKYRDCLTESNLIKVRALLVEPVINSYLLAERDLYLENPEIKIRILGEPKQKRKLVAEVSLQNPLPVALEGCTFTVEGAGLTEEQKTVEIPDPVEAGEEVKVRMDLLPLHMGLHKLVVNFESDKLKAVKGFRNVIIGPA
Method: (§1) The fluorescent screening assay for human TG2 was performed as described herein: Assay conditions were 20 nM TG2, 8 μM N,N-dimethylated Casein (NMC) and 16 μM K×D (used for all transglutaminase assays) in 25 mM Hepes, pH 7.4, 250 mM NaCl, 2 mM MgCl2, 0.5 mM CaCl2, 0.2 mM DTT, 0.05% Pluronic F-127 at 37° C. A time point was taken with a microplate reader (Safire or Ultra, Tecan; ex: 350 nm, em: 535 nm) every 3 minutes for up to 2 hours and the initial linear reaction progress was used to determine the reaction velocity as a measure for enzyme activity. Assay conditions were identical for human TG6 and similar for human TG1 and mouse TG2 apart from enzyme concentration (mTG2 at 5 nM; TG1 at 10 nM) and CaCl2 concentration (0.2 mM for mTG2; 0.05 mM for TG1). Factor XIIIa was activated using 0.1 μg/μl thrombin (Sigma) in 35 mM Tris pH 8.0 for 20 min at 30° C. and the transamidation reaction was performed with 20 nM Factor XIIIa in 50 mM Tris pH 8.0, 1.25 mM CaCl2, 0.05% Pluronic, 0.2 mM DTT. TG3 was activated with 0.02 μg/μl thrombin under the same conditions as Factor XIIIa and assay conditions were 10 nM TG3 in 50 mM Hepes, pH 8, 20 mM CaCl2, 0.2 mM DTT, 0.05% Pluronic F-127.
as §1, with “A” for “The”

Structure (SMILES) | IC50
C=CC(=O)Nc1ccc(S(=O)(=O)N2CCN(C(=O)OCc3ccccc3Cl)CC2)cc1 [4-(4-Acryloylamino-benzenesulfonyl)-piperazine-1-carboxylic acid 2-chloro-benzyl ester] | 100 to 1000 nM and < 100 nM
C=CC(=O)N(C)c1ccc(S(=O)(=O)N2CCN(C(=O)OC(C)(C)C)CC2)cc1 [4-[4-(Acryloyl-methyl-amino)-benzenesulfonyl]-piperazine-1-carboxylic acid tert-butyl ester] | 1000 to 25000 nM
C=CC(=O)Nc1ccc(S(=O)(=O)N2CCN(C(=O)C3CC3c3ccccc3)CC2)cc1 (centres unmarked) [N-{4-[4-(2-Phenyl-cyclopropanecarbonyl)-piperazine-1-sulfonyl]-phenyl}-acrylamide] | 100 to 1000 nM and < 100 nM
C=CC(=O)Nc1ccc(S(=O)(=O)N2CCN(c3ccc(C)cn3)CC2)cc1 [N-{4-[4-(5-Methyl-pyridin-2-yl)-piperazine-1-sulfonyl]-phenyl}-acrylamide] | < 100 nM and 100 to 1000 nM
C=CC(=O)Nc1ccc(S(=O)(=O)N(C)Cc2ccc(CN3CCN(C)CC3)cc2)cc1 [N-(4-{Methyl-[4-(4-methyl-piperazin-1-ylmethyl)-benzyl]-sulfamoyl}-phenyl)-acrylamide] | 1000 to 25000 nM
C=CC(=O)Nc1ccc(S(=O)(=O)NC2CCCN(CC)C2)cc1 (centres unmarked) [N-[4-(1-Ethyl-piperidin-3-ylsulfamoyl)-phenyl]-acrylamide] | 1000 to 25000 nM
C=CC(=O)Nc1ccc(S(=O)(=O)N2CCN(c3nc4ccccc4o3)CC2)cc1 [N-[4-(4-Benzooxazol-2-yl-piperazine-1-sulfonyl)-phenyl]-acrylamide] | < 100 nM and 100 to 1000 nM
C=CC(=O)Nc1ccc(S(=O)(=O)N2CCN(C(=O)NC3C4CC5CC(C4)CC3C5)CC2)cc1 (centres unmarked) [4-(4-Acryloylamino-benzenesulfonyl)-piperazine-1-carboxylic acid adamantan-2-ylamide] | 100 to 1000 nM and < 100 nM
C=CC(=O)Nc1cccc(S(=O)(=O)N2CCN(CCCc3ccccc3)CC2)c1 [N-{3-[4-(3-Phenyl-propyl)-piperazine-1-sulfonyl]-phenyl}-acrylamide] | 1000 to 25000 nM
C=CC(=O)Nc1ccc(S(=O)(=O)N2CCN(C(=O)OCC)CC2)cc1 [4-(4-Acryloylamino-benzenesulfonyl)-piperazine-1-carboxylic acid ethyl ester] | 100 to 1000 nM and < 100 nM
C=CC(=O)Nc1ccc(S(=O)(=O)N2CCNCC2)c(OC)c1 [N-[3-Methoxy-4-(piperazine-1-sulfonyl)-phenyl]-acrylamide] | 1000 to 25000 nM
C=CC(=O)Nc1ccc(S(=O)(=O)N2CCN(C(=O)OCc3cccc(F)c3)CC2)cc1 [4-(4-Acryloylamino-benzenesulfonyl)-piperazine-1-carboxylic acid 3-fluoro-benzyl ester] | 100 to 1000 nM and < 100 nM
C=CC(=O)Nc1ccc(S(=O)(=O)N2CCN(c3nccc(C(F)(F)F)n3)CC2)cc1 [N-{4-[4-(4-Trifluoromethyl-pyrimidin-2-yl)-piperazine-1-sulfonyl]-phenyl}-acrylamide] | < 100 nM and 100 to 1000 nM
C=CC(=O)Nc1ccc(S(=O)(=O)N2CCN(C(=O)Cc3ccc(Oc4ccccc4)cc3)CC2)cc1 [N-(4-{4-[2-(4-Phenoxy-phenyl)-acetyl]-piperazine-1-sulfonyl}-phenyl)-acrylamide] | 100 to 1000 nM and < 100 nM
C=CC(=O)Nc1ccc(S(=O)(=O)N2CCN(c3ccc4ccccc4c3)CC2)cc1 [N-[4-(4-Naphthalen-2-yl-piperazine-1-sulfonyl)-phenyl]-acrylamide] | 1000 to 25000 nM
C=CC(=O)Nc1ccc(S(=O)(=O)N2CCN(C(=O)Cc3cccc(Oc4ccccc4)c3)CC2)cc1 [N-(4-{4-[2-(3-Phenoxy-phenyl)-acetyl]-piperazine-1-sulfonyl}-phenyl)-acrylamide] | 100 to 1000 nM and < 100 nM

Structure (SMILES) | IC50
C=CC(=O)Nc1ccc(S(=O)(=O)N2CCN(C(=O)OCc3c(F)cccc3F)CC2)cc1 [4-(4-Acryloylamino-benzenesulfonyl)-piperazine-1-carboxylic acid 2,6-difluoro-benzyl ester] | 100 to 1000 nM and < 100 nM
C/C=C/C(=O)Nc1ccc(S(=O)(=O)N2CCN(C(=O)OC(C)(C)C)CC2)cc1 [(E)-tert-butyl 4-(4-but-2-enamidophenylsulfonyl)piperazine-1-carboxylate] | 1000 to 25000 nM
C=CC(=O)Nc1ccc(S(=O)(=O)N2CCN(C(=O)N3CCC(F)(F)CC3)CC2)cc1 [N-{4-[4-(4,4-Difluoro-piperidine-1-carbonyl)-piperazine-1-sulfonyl]-phenyl}-acrylamide] | 100 to 1000 nM and < 100 nM
C=CC(=O)Nc1ccc(S(=O)(=O)N2CCN(C(=O)N3CCC4CCCCC4C3)CC2)cc1 (centres unmarked) [N-{4-[4-(Octahydro-isoquinoline-2-carbonyl)-piperazine-1-sulfonyl]-phenyl}-acrylamide] | 100 to 1000 nM and < 100 nM
C=CC(=O)Nc1ccc(S(=O)(=O)N2CCC(N(C)C(=O)C34CC5CC(CC(C5)C3)C4)CC2)cc1 [Adamantane-1-carboxylic acid [1-(4-acryloylamino-benzenesulfonyl)-piperidin-4-yl]-methyl-amide] | 100 to 1000 nM and < 100 nM
C=CC(=O)Nc1ccc(S(=O)(=O)N2CCN(C(=O)C3CCCC3)CC2)cc1 [N-[4-(4-Cyclopentanecarbonyl-piperazine-1-sulfonyl)-phenyl]-acrylamide] | 100 to 1000 nM and < 100 nM
C=CC(=O)Nc1ccc(S(=O)(=O)NC(C)C(=O)N2CCCCC2)cc1 (centres unmarked) [N-[4-(1-Methyl-2-oxo-2-piperidin-1-yl-ethylsulfamoyl)-phenyl]-acrylamide] | 1000 to 25000 nM
C=CC(=O)Nc1ccc(S(=O)(=O)N2CCN(C(=O)N3CCCC3)CC2)cc1 [N-{4-[4-(Pyrrolidine-1-carbonyl)-piperazine-1-sulfonyl]-phenyl}-acrylamide] | 100 to 1000 nM and < 100 nM
C=CC(=O)Nc1ccc(S(=O)(=O)N2CCN(c3ccccn3)CC2)cc1 [N-[4-(4-Pyridin-2-yl-piperazine-1-sulfonyl)-phenyl]-acrylamide] | 100 to 1000 nM and < 100 nM
C=CC(=O)Nc1ccc(S(=O)(=O)N2CCNCC2)cc1 [N-[4-(piperazine-1-sulfonyl)-phenyl]acrylamide] | 1000 to 25000 nM
C=CC(=O)Nc1ccc(S(=O)(=O)N2CCN(c3cc(C)ccn3)CC2)cc1 [N-{4-[4-(4-Methyl-pyridin-2-yl)-piperazine-1-sulfonyl]-phenyl}-acrylamide] | < 100 nM and 100 to 1000 nM
C=CC(=O)Nc1ccc(S(=O)(=O)N2CCN(C(=O)C3CCOCC3)CC2)cc1 [N-{4-[4-(Tetrahydro-pyran-4-carbonyl)-piperazine-1-sulfonyl]-phenyl}-acrylamide] | 100 to 1000 nM and < 100 nM
C=CC(=O)Nc1ccc(S(=O)(=O)N2CCN(C(=O)OC3CCCC3)CC2)cc1 [4-(4-Acryloylamino-benzenesulfonyl)-piperazine-1-carboxylic acid cyclopentyl ester] | 100 to 1000 nM and < 100 nM
C=CC(=O)Nc1cccc(S(=O)(=O)N2CCNCC2)c1 [N-[3-(piperazine-1-sulfonyl)-phenyl]-acrylamide] | 1000 to 25000 nM
C=CC(=O)Nc1ccc(S(=O)(=O)N2CCC(c3ccco3)=Nc3ccccc32)cc1 [N-[4-(4-Furan-2-yl-2,3-dihydro-benzo[β][1,4]diazepine-1-sulfonyl)-phenyl]-acrylamide] | 1000 to 25000 nM
C=CC(=O)Nc1ccc(S(=O)(=O)N2CCN(C(=O)OC(C)(C)C)CC2)c(OC)c1 [4-(4-Acryloylamino-2-methoxy-benzenesulfonyl)-piperazine-1-carboxylic acid tert-butyl ester] | 1000 to 25000 nM
